{
  "source": "patent US20200270225A1",
  "about": "“Chiral Diacylhydrazine Ligands for Modulating the Expression of Exogenous Genes via an Ecdysone Receptor Complex” (Intrexon Corporation, priority 2007, published 2020)",
  "key": {"[1]": {"target": "T1, [V390I/Y410E/E274V]-CfEcR (Choristoneura fumiferana, UniProt O77240)", "T1 construct": "assay construct b835", "assay_type": "cell-based", "conditions": "S, 3T3 Cells", "how_it_was_run": "(§1)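 NIH3T3 cells were transiently co-transfected with GAL4-DBD fused to CfEcR DEF domains (wild-type or V390I/Y410E/E274V), VP16-AD fused to chimeric human/Locusta RXR, and a GAL4-response luciferase reporter. Ligand was given at 8 doses, 0.01–33 µM, 0.33% DMSO, luciferase read at 48 h. EC50 came from fold induction over DMSO via three-parameter logistic fit; Relative Max FI was taken versus GS™-E ligand.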"}, "[2]": {"target": "wild-type Choristoneura fumiferana EcR (D, E and F domains) (Choristoneura fumiferana, UniProt O77240)", "assay_type": "cell-based", "conditions": "S, WT-CtEcR, 3T3 Cells", "how_it_was_run": "as §1"}, "[3]": {"system": "RheoSwitch® Therapeutic System (RTS) gene expression", "test": "In vivo induction of RTS SEAP reporter in electroporated mice", "design": "species or system C57BL6 mice", "conditions": "intraperitoneal injection 26 nmol/mouse; monitored seventeen days", "from_the_text": "The wild-type D, E, and F domains from spruce budworm Choristoneura fumiferana EcR (“CfEcR-DEF”; SEQ ID NO: 1) were mutated [V107 (gtt)→1107 (att) and Y127 (tac)→E127 (gag)] and fused to a GAL4 DNA binding domain (“Gal4DBD1-147”; SEQ ID NO: 2). Helices 1 through 8 of the EF domains from Homo sapiens RXRPβ (“HsRXRβ-EF”; nucleotides 1-465 of SEQ ID NO: 4) and helices 9 through 12 of the EF domains of Locusta migratoria Ultraspiracle Protein (“LmUSP-EF”; nucleotides 403-630 of SEQ ID NO: 5) were fused to the transactivation domain from VP16 (“VP16AD”; SEQ ID NO: 6), which regulates a reporter gene human secreted alkaline phosphatase (“SEAP”, SEQ ID NO: 12) that was placed under the control of a 6xGAL4 response element (SEQ ID NO: 13) and a transthyretin promoter (SEQ ID NO: 14). Each element of the gene switch was on a separate plasmid. Receptor expression was under the control of a CMV promoter (SEQ ID NO: 15). Induction was evaluated by the amount of reporter protein expressed in the presence of ligand.\nSEAP expression in serum of mice was evaluated after electroporation of the gene switch into mouse quadriceps. Mice were anesthetized with 2 μL/g of a mixture of ketamine (100 mg/mL) and xylazine (20 mg/mL). Animals were then shaved, DNA vectors injected into the muscle in a volume of 2×50 μL polyglutamic acid (12 mg/mL water), electrode conductivity gel applied, and an electrode caliber (1 cm×1 cm; model 384) was placed on hind leg. The muscle was electroporated with 200 V/cm, 8 times, for 20 msec/pulse, at 1 sec time intervals. The transverse electrical field direction was reversed after the animals received half of the pulses. Electroporation was performed with an ECM 830 electroporator from BTX Molecular Delivery Systems.\n[…] In other experiments the concentration of ligand was decreased to 26 nmol/50 μL of DMSO/mouse. […]\nMouse serum was obtained by centrifugation of blood acquired by retroorbital bleeding with a small glass capillary tube. SEAP quantification was determined using a Clontech Great Escape chemiluminescence kit and by comparison with the Clontech SEAP standard. […]"}},
  "data": [
    {"compound": "CCC[C@H](N(NC(=O)c1cccc(OC)c1CC)C(=O)c1cc(C)cc(C)c1)C(C)(C)C", "note": "[Example 31, (S)-3,5-Dimethyl-benzoic acid N-(1-tert-butyl-butyl)-N′-(2-ethyl-3-methoxy-benzoyl)-hydrazide]", "values": [
      {"measurement": "EC50", "setting": "[1]", "value": "~30", "unit": "nM"},
      {"measurement": "RMFI (relative maximum fold induction)", "setting": "[1]; relative to GS-E ligand", "value": 0.57},
      {"measurement": "EC50", "setting": "[2]", "value": 136, "unit": "nM"},
      {"measurement": "RMFI (relative maximum fold induction)", "setting": "[2]; relative to GS-E ligand", "value": 0.52},
      {"measurement": "RTS gene reporter (SEAP) expression in mouse serum", "setting": "[3]", "value": "does not induce RTS gene reporter expression"}
    ]}
  ]
}
